Measurements taken from patent US4160829A, “Antibacterial 1,2,4-oxadiazolylacetamido cephalosporins” (Gist-Brocades N.V., priority 1972, dated 1979).
Converted amounts (≈) assume the structure as drawn. Read-outs that look alike come from different tables or passages of the source.

Experiments:
Bac.Subt.ATCC 6633 = experiment: agar serial dilution test; type: cell-based, Bacillus subtilis; conditions: Bacillus subtilis, ATCC6633, 24 h, read-out: minimal inhibitory concentration (MIC)
Staph.aureus A 321 = experiment: agar serial dilution test; type: cell-based, Staphylococcus aureus; conditions: Staphylococcus aureus, A321, 24 h, read-out: minimal inhibitory concentration (MIC)
Staph.aureus A 2000 [1] = experiment: agar serial dilution test; type: cell-based, Staphylococcus aureus; conditions: Staphylococcus aureus, A2000, 24 h, read-out: minimal inhibitory concentration (MIC)
Strep.haem. A 266 = experiment: agar serial dilution test; type: cell-based, Streptococcus haemolyticus; conditions: Streptococcus, read-out: minimal inhibitory concentration (MIC)
Strep. faec. L 80 = experiment: agar serial dilution test; type: cell-based, Streptococcus faecalis; conditions: Enterococcus faecalis, read-out: minimal inhibitory concentration (MIC)
Dipl.pneum. L 54 = experiment: agar serial dilution test; type: cell-based, Diplococcus pneumoniae; conditions: Streptococcus pneumoniae, read-out: minimal inhibitory concentration (MIC)
Bruc.melit. A 488 = experiment: microbe, parasite or virus in culture; type: cell-based; conditions: Brucella melitensis, 24 h, read-out: minimal inhibitory concentration (MIC)
Past.multo. A 723 = experiment: agar serial dilution test; type: cell-based, Pasteurella multocida; conditions: Pasteurella multocida, read-out: minimal inhibitory concentration (MIC)
Kleb.pneum. A 809 = experiment: agar serial dilution test; type: cell-based, Klebsiella pneumoniae; conditions: Klebsiella pneumoniae, read-out: minimal inhibitory concentration (MIC)
Salm.dubl. P 43 = experiment: agar serial dilution test; type: cell-based, Salmonella dublin; conditions: Salmonella enterica, read-out: minimal inhibitory concentration (MIC)
Esch.coli U 20 = experiment: agar serial dilution test; type: cell-based, Escherichia coli; conditions: Escherichia coli
Shig.equir. T 3 = experiment: agar serial dilution test; type: cell-based; conditions: 37° C., read-out: minimal inhibitory concentration (MIC)
Pseud.aerug. H 10 = experiment: agar serial dilution test; type: cell-based; conditions: read-out: minimal inhibitory concentration (MIC)
Pseud.aerug. 2396 = experiment: agar serial dilution test; type: cell-based; conditions: read-out: minimal inhibitory concentration (MIC)
[2] = tested on: Pseud.aerug. Wyeth A 1058; experiment: agar serial dilution test; type: cell-based; conditions: read-out: minimal inhibitory concentration (MIC)
Prot.rettg. A 821 = experiment: agar serial dilution test; type: cell-based, Proteus rettgeri; conditions: Providencia rettgeri, 24 h, read-out: minimal inhibitory concentration (MIC)
Prot.mirab. H 3 = experiment: agar serial dilution test; type: cell-based, Proteus mirabilis; conditions: Proteus mirabilis
Prot.mirab. L 93 = experiment: agar serial dilution test; type: cell-based, Proteus mirabilis; conditions: Proteus mirabilis
Prot.morg. 2241 = experiment: agar serial dilution test; type: cell-based; conditions: 24 h, read-out: minimal inhibitory concentration (MIC)
Haem.infl. A 1030 = experiment: micro serial dilution test; type: cell-based; conditions: 18 h, read-out: minimal inhibitory concentration (MIC)
Staph.aureus A 355 [3] = experiment: agar serial dilution test; conditions: Staphylococcus aureus, A355, 24 h
Staph.aureus A 2001 [4] = experiment: agar serial dilution test; type: cell-based, Staphylococcus aureus; conditions: Staphylococcus aureus, A2001, 24 h, agar serial dilution, 24 hours, 37° C.; read-out: minimal inhibitory concentration (MIC)
Salm.typh. R 127 = experiment: agar serial dilution test; type: cell-based; conditions: 24 h, 37° C., read-out: minimal inhibitory concentration (MIC)
Prot.mirab. A 1200 = experiment: agar serial dilution test; type: cell-based, Proteus mirabilis; conditions: Proteus mirabilis, 24 h, agar serial dilution, 24 hours, 37° C.; read-out: minimal inhibitory concentration (MIC)
Staph.aureus A 355 [5] = experiment: micro serial dilution test; type: cell-based, Staphylococcus aureus; conditions: Staphylococcus aureus, A355; micro serial dilution (in brackets), about 18 hours, 30° C. or 37° C.; penicillinase-producing strain; read-out: minimal inhibitory concentration (MIC)
Excerpt: Two drops of a stock solution of the test compound (antibiotic) in a known concentration were brought into the first hole of a test plate with 9 numbered holes with a sterile Pasteur pipette. After rinsing this pipette three times with a physiological NaCl-solution, two drops of a stock solution of the test organism in a culture medium were brought in all the holes except for hole 8. In the first hole, the solution of the tested compound had been half diluted, then by stirring the liquid in the first hole and adding two drops of this mixture to the second hole and so on until hole 8, dilutions of the test compound solution were obtained in geometrical progression. The hole 9 contained no antibiotic and served for checking the growth of the testogranism in a blank medium. The test plate was incubated at 30° C. or 37° C. for about 18 hours.
^1 Penicillinase-producing strain

Staph.aureus A 2000 [6] = experiment: micro serial dilution test; type: cell-based, Staphylococcus aureus; conditions: Staphylococcus aureus, A2000, 18 h, micro serial dilution (in brackets), about 18 hours, 30° C. or 37° C.; read-out: minimal inhibitory concentration (MIC)
Staph.aureus A 2001 [7] = experiment: micro serial dilution test; type: cell-based, Staphylococcus aureus; conditions: Staphylococcus aureus, A2001, 18 h, micro serial dilution (in brackets), about 18 hours, 30° C. or 37° C.; read-out: minimal inhibitory concentration (MIC)
[8] = 24 h, read-out: minimal inhibitory concentration (MIC), agar serial dilution, 24 hours, 37° C.
[9] = agar serial dilution, 24 hours, 37° C.
[10] = U20, agar serial dilution, 24 hours, 37° C., read-out: minimal inhibitory concentration (MIC)
[11] = agar serial dilution, 24 hours, 37° C., read-out: minimal inhibitory concentration (MIC)
[12] = micro serial dilution (in brackets), about 18 hours, 30° C. or 37° C.
[13] = read-out: minimal inhibitory concentration (MIC), agar serial dilution, 24 hours, 37° C., penicillinase-producing strain

Structure (SMILES)	MIC (Salm.dubl. P 43; 24 h) [µg/mL]	MIC (Bac.Subt.ATCC 6633; [9]) [µg/mL]	MIC (Staph.aureus A 321; [9]) [µg/mL]	MIC (Staph.aureus A 2000 [1]; [9]) [µg/mL]	MIC (Staph.aureus A 2001 [4]) [µg/mL]	MIC (Strep.haem. A 266; [9]) [µg/mL]	MIC (Strep. faec. L 80; [9]) [µg/mL]	MIC (Dipl.pneum. L 54; [9]) [µg/mL]	MIC (Past.multo. A 723; [9]) [µg/mL]	MIC (Kleb.pneum. A 809; [9]) [µg/mL]	MIC (Salm.typh. R 127) [µg/mL]	MIC (Esch.coli U 20; [10]) [µg/mL]	MIC (Shig.equir. T 3; 24 h) [µg/mL]	MIC (Pseud.aerug. H 10; [9]) [µg/mL]	MIC (Pseud.aerug. 2396; [9]) [µg/mL]	MIC [2, 9] [µg/mL]	MIC (Prot.rettg. A 821; [9]) [µg/mL]	MIC (Prot.mirab. H 3; [11]) [µg/mL]	MIC (Prot.mirab. L 93; [11]) [µg/mL]	MIC (Prot.mirab. A 1200) [µg/mL]	other results
CC1=C(C(=O)O)N2C(=O)[C@@H](NC(=O)Cc3ccccc3)[C@H]2SC1 [benzyldesacetoxy ceph., reference compound]	> 100																				MIC (Bac.Subt.ATCC 6633): 0.5 µg/mL (≈ 1.5 µM); MIC (Staph.aureus A 321): 1 µg/mL (≈ 3.01 µM); MIC (Staph.aureus A 2000 [1]): 12.5 µg/mL (≈ 37.6 µM); MIC (Strep.haem. A 266; 24 h): 1 µg/mL (≈ 3.01 µM); MIC (Strep. faec. L 80; 24 h): > 100 µg/mL; MIC (Dipl.pneum. L 54; 24 h): 3 µg/mL (≈ 9.03 µM); MIC (Bruc.melit. A 488): 100 µg/mL (≈ 301 µM); MIC (Past.multo. A 723; 24 h): 25 µg/mL (≈ 75.2 µM); MIC (Kleb.pneum. A 809; 24 h): 100 µg/mL (≈ 301 µM); MIC (Esch.coli U 20; U20, 24 h, read-out: minimal inhibitory concentration (MIC), agar serial dilution, 24 hours, 37° C.): > 100 µg/mL; MIC (Shig.equir. T 3; 24 hours): 100 µg/mL (≈ 301 µM); MIC (Pseud.aerug. H 10; 24 h): > 100 µg/mL; MIC (Pseud.aerug. 2396; 24 h): > 100 µg/mL; MIC ([2]; 24 h): > 100 µg/mL; MIC (Prot.rettg. A 821): > 100 µg/mL; MIC (Prot.mirab. H 3; [8]): > 100 µg/mL; MIC (Prot.mirab. L 93; [8]): 50 µg/mL (≈ 150 µM); MIC (Prot.morg. 2241): > 100 µg/mL; MIC (Haem.infl. A 1030): > 125 µg/mL; MIC (Staph.aureus A 355 [3]; read-out: minimal inhibitory concentration (MIC)): 25 µg/mL (≈ 75.2 µM)
CC(=O)OCC1=C(C(=O)O)N2C(=O)[C@@H](NC(=O)Cc3noc(Cc4ccccc4)n3)[C@H]2SC1 [Compound C, 7-[(5-benzyl-1,2,4-oxadiazol-3-yl)-acetamido]-3-acetoxymethyl-3-cephem-4-carboxylic acid]		0.25 (≈ 0.529 µM)	0.25 (≈ 0.529 µM)	0.25 (≈ 0.529 µM)	0.25 (≈ 0.529 µM)	0.5 (≈ 1.06 µM)	12.5 (≈ 26.5 µM)	0.5 (≈ 1.06 µM)	1 (≈ 2.12 µM)	12.5 (≈ 26.5 µM)	> 100	> 100	25 (≈ 52.9 µM)	> 100	> 100	> 100	50 (≈ 106 µM)	> 100	25 (≈ 52.9 µM)	> 100	MIC (Salm.dubl. P 43; [9]): > 100 µg/mL; MIC (Prot.morg. 2241; [9]): > 100 µg/mL; MIC (Staph.aureus A 355 [5]): 0.6 µg/mL (≈ 1.27 µM); MIC (Staph.aureus A 2000 [6]): 0.3 µg/mL (≈ 0.635 µM); MIC (Staph.aureus A 2001 [7]): 0.6 µg/mL (≈ 1.27 µM); MIC (Haem.infl. A 1030; [12]): 125 µg/mL (≈ 265 µM); MIC (Staph.aureus A 355 [3]; [13]): 0.75 µg/mL (≈ 1.59 µM)
Cc1noc(CC(=O)N[C@@H]2C(=O)N3[C@@H]2SC(C)(C)[C@@H]3C(=O)O)n1 [Example 11B, sodium 6-[(3-methyl-1,2,4-oxadiazol-5-yl)-acetamido]-penicillanate H2 O]	12.5	0.03	0.12	50	3	0.03	6	0.25	1	> 100	12.5	50	3	> 100	> 100	> 100	50	50	3	> 100	MIC (Prot.morg. 2241; [9]): > 100 µg/mL; MIC (Staph.aureus A 355 [5]): > 12 µg/mL; MIC (Staph.aureus A 2000 [6]): > 12 µg/mL; MIC (Staph.aureus A 2001 [7]): 2.5 µg/mL; MIC (Haem.infl. A 1030; [12]): 125 µg/mL; MIC (Staph.aureus A 355 [3]; [13]): 50 µg/mL
